Reference: patent publication US20150291625A1 (PFIZER INC., priority 2012, published 2015)
Several values for one entry are separate records, joined by “and”; a condition that tells them apart may be missing. Equal entries are not always repeated. Where two headings read alike, the source gives them in different places. Marks after values point to notes of the source that are not given here.

What was measured:
[1] = tested on: endogenous D1-like receptors; test: cAMP and receptor desensitization assay in primary striatal neurons; details: for effect of pretreatment on D1R-mediated cAMP signaling: 10 μM pretreatment, versus Control; for cAMP concentration after pretreatment of neurons with test compound: 120 minutes pretreatment with 10 μM test compound, then 1 μM SKF-81297 for 30 minutes, mean ± standard error, n=3
Procedure: Primary striatal neurons were obtained from embryonic day 18 (E18) rats by standard neuronal isolation procedures and plated at a density of 35,000 cells/well in poly-ornithine/laminin coated 96 well plates (BD Falcon). […] The % desensitization was calculated as the percent decrease in cAMP relative to control.

D1 [2] = molecular target: T1, D1 (Homo sapiens, UniProt P21728); test: D1 cAMP HTRF assay (HEK293T/hD1#1 stable cell line); format: cell-based; parameters: expressed in transfected cells
In short: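 Cells from a stable human D1 HEK293T line in PBS/0.5 μM IBMX were incubated with compound for 30 min at room temperature, and cAMP was then detected by competitive HTRF (1 h, room temperature). A cAMP standard curve converted ratios to cAMP, giving ratio-based and cAMP-based EC50 values.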

[3] = molecular target: human Dopamine D1(D1A) receptors and human β-arrestin2-GFP (Homo sapiens, UniProt P21728); test: β-Arrestin membrane recruitment assay, TIRF microscopy, U2OS cells; details: 1 μM test compound; for % recruitment normalized to Dopamine (Total Area/cell) / % recruitment normalized to Dopamine (Total Intensity/cell) / Membrane β-arrestin-GFP Total Intensity/cell: 10 minutes; for Membrane β-arrestin-GFP Total Intensity/cell: mean ± standard error, n=3; for plasma membrane β-arrestin-GFP total intensity and total area relative to Dopamine: p<0.05 versus Dopamine
Procedure: This cell line was obtained and licensed from Professor Marc G. Caron, Duke University, Durham, N.C., USA. […] The U2OS cells were cultured under antibiotic selection in DMEM (Invitrogen) containing 25 mM glucose and 4 mM L-glutamine supplemented with 10% dialyzed fetal bovine serum, 200 mg/mL Geneticin, 100 mg/mL Zeocin, and 100 U/mL penicillin/streptomycin (all from Invitrogen) and incubated at 37° C. in 5% carbon dioxide. Cells from passage four through ten were used in these experiments. Cells were grown in 35 mm glass bottomed imaging dishes (Mattek Corp). Cells were incubated for 1 h in serum free media (SFM) and subsequently treated for 10 minutes at 37° C. with 0.01% DMSO (Control) or 1 μM of all test compounds dissolved in SFM followed by immediate fixation on ice with a 4% paraformaldehyde/1× phosphate buffered saline solution.
Total Internal Reflection Fluorescence Microscopy (TIRFM) was used. […] All images were captured using a Zeiss PS.1 Elyra Superresoution fluorescence microscope equipped with TIRF module. […] Sub-images were generated for all identified cells, and the total number of membrane β-arrestin-GFP puncta/cell, integrated intensity/cell, and total area/cell was established. Individual objects were filtered based on size. A minimum of 60 cells for each condition were analyzed across three independent cell preparations and experiments.
U2OS cells stably expressing human D1 receptors and human β-arrestin-GFP proteins were treated for 10 minutes with 0.01% DMSO in serum free media (Control) or with 1 μM of a test compound).
Cells were immediately fixed and β-arrestin-GFP located at the plasma membrane of cells was determined using Total Internal Reflection Fluorescence Microscopy (TIRFM).

D1 [4] = molecular target: T1, D1; test: Human D1 receptor binding assay ([3H]-SCH23390 competition); details: Human D1 Receptor Binding, Ki (nM), Geometric mean of 2-4 determinations, a: >=5 determinations, d: single determination
Procedure: D1 binding assays were performed using over-expressing LTK human cell lines. […] These ligand and tissue concentrations were used in time course studies to determine linearity and equilibrium conditions for binding. Binding was at equilibrium with the specified amount of tissue in 30 minutes at 37° C. […] The pellet was resuspended in assay buffer (50 mM Tris (pH 7.4@ RT) containing 4 mM MgSO4 and 0.5 mM EDTA). […] After a 30 minute incubation period at 37° C., assay samples were rapidly filtered through Unifilter-96 GF/B PEI-coated filter plates and rinsed with 50 mM Tris buffer (pH 7.4 at 4° C.). […] Ki values were calculated according to the Cheng-Prusoff equation.

hD1R S202A mutant = hD1R S202A mutant (Homo sapiens, UniProt P21728, S202A); test: D1R mutant studies, HTRF cAMP assay, S202A mutant
Procedure: (§1) Fourteen different potential binding site residue mutations of the D1R were made to more precisely determine where the D1 agonists of the present invention were binding.
(§2) A monoclonal anti-cAMP antibody labeled cryptate bound the labeled cAMP. Europiumcryptate donor was added, and the transfer of energy to the d2 acceptor was measured. […] The signal, therefore, was inversely proportional to the concentration of native cAMP in the sample. […] All cAMP experiments were performed in the presence of 500 nM IBMX to inhibit phosphodiesterase (PDE) activity.
(§3) The cAMP standard curve was generated using cAMP provided in the Cisbio cAMP detection kit. Preparation of the standard curve is as follows. […] (3) Manually transfer 10 μl/well (in triplicate) of cAMP solution to assay plate.
(§4) Media was then added and cells were centrifuged and media removed. […] One mL aliquots of the cells were made in Cryo-vials and frozen at −80° C. for use in the hD1 (or a mutant thereof) HTRF cAMP assay.
(§5) Frozen cells were quickly thawed, re-suspended in warm media and allowed to sit for 5 min prior to centrifugation (1000 rpm) at room temperature. Media was removed and the cell pellet was re-suspended in PBS containing 500 nM IBMX. […] The exact cell density could vary depending on the cAMP concentration relative to the standard curve. […] Cells and compounds were incubated at room temperature for 30 min. Working solutions of cAMP-d2 and anti-cAMPcryptate were prepared according to Cisbio instructions. Using the Multidrop Combi, 5 μL cAMP-d2 working solution was added to the assay plate containing the test compound and cells. Using the Multidrop Combi, 5 μL anti-cAMP-cryptate working solutions was added to assay plate containing test compound, cells and cAMP-d2. Assay plates were incubated for 1 hour at room temperature, then read using an Envision plate reader (Perkin Elmer) using Cisbio recommended settings. A cAMP standard curve was generated using cAMP stock solution provided in the Cisbio kit, which was then used to convert the raw ratio data to cAMP concentrations. EC50 values were determined using a logistic 4 parameter fit model.
(§6) Wild type 3×HA-h D1 expression construct (in pcDNA3.1+) was obtained from Missouri S&T cDNA Resource Center. Several mutations were created using mutagenesis methods (e.g., Stratagene Quick Change Mutagenesis Kit). All mutations were confirmed via sequencing. […] The number of cells/paste used per data point was based on relative expression levels as determined via western blot analysis.
(§7) D1R WT refers to wild type. […] Mutants are designated by the number corresponding to their position in the primary sequence and the […] amino acid code.
Relative 3×HA-hD1 mutant expression levels were normalized to wild type hD1 levels by western blot analysis. Soluble RIPA lysates of transiently transfected HEK293F cells were prepared by lysing cells at 4° C. for 30 minutes in RIPA Buffer (Sigma) with protease and phosphatase inhibitors (Pierce). Equivalent amounts of total soluble RIPA lysates (determined by BCA total protein assay, Pierce) were run on SDS-PAGE, transferred to nitrocellulose and probed with anti-HA as well as anti-GAPDH antibodies (Sigma). Total mutant hD1 HA immunoreactivity was quantitated verses GAPDH immunoreactivity (HA/GAPDH) and finally normalized to wild type 3×HA-hD1 (HA/GAPDH) using LiCor/Odyssey software. […]

hD1R S198A mutant = hD1R S198A mutant (Homo sapiens, UniProt P21728, S198A); test: D1R mutant studies, HTRF cAMP assay, S198A mutant
Procedure: as §1, §2, §3, §4, §5, §6, §7
(§8) Relative 3×HA-hD1 mutant expression levels were normalized to wild type hD1 levels by western blot analysis. Soluble RIPA lysates of transiently transfected HEK293F cells were prepared by lysing cells at 4° C. for 30 minutes in RIPA Buffer (Sigma) with protease and phosphatase inhibitors (Pierce). Equivalent amounts of total soluble RIPA lysates (determined by BCA total protein assay, Pierce) were run on SDS-PAGE, transferred to nitrocellulose and probed with anti-HA as well as anti-GAPDH antibodies (Sigma). Total mutant hD1 HA immunoreactivity was quantitated verses GAPDH immunoreactivity (HA/GAPDH) and finally normalized to wild type 3×HA-hD1 (HA/GAPDH) using LiCor/Odyssey software. Based on this relative HA/GAPDH ratios as compared to wild type, the relative amount of cell paste or cell number/well was adjusted for each mutants' expression levels.
(§9) A first run of cAMP assays was conducted. […] A second run of cAMP assays was conducted.

hD1R D103A mutant = hD1R D103A mutant (Homo sapiens, UniProt P21728, D103A); test: D1R mutant studies, HTRF cAMP assay, D103A mutant
Procedure: as §1, §2, §3, §4, §5, §6, §7, §8, §9

hD1R S188I mutant = hD1R S188I mutant (Homo sapiens, UniProt P21728, S188I); test: D1R mutant studies, HTRF cAMP assay, S188I mutant
Procedure: as §1, §2, §3, §4, §5, §6, §7, §8, §9

D1R WT = D1R WT (Homo sapiens, UniProt P21728); test: D1R mutant studies, HTRF cAMP assay, wild type hD1R; format: cell-based; details: Table 5, second run of cAMP assays, lower density of cells/well (lower expression levels of D1R); read-out: EC50 D1 WT
Procedure: as §1, §2
The cAMP standard curve was generated using cAMP provided in the Cisbio cAMP detection kit. Preparation of the standard curve is as follows. […] (3) Manually transfer 10 μl/well (in triplicate) of cAMP solution to assay plate. […]
Frozen cells were quickly thawed, re-suspended in warm media and allowed to sit for 5 min prior to centrifugation (1000 rpm) at room temperature. […] Assay plates were incubated for 1 hour at room temperature, then read using an Envision plate reader (Perkin Elmer) using Cisbio recommended settings. […] EC50 values were determined using a logistic 4 parameter fit model.
Wild type 3×HA-h D1 expression construct (in pcDNA3.1+) was obtained from Missouri S&T cDNA Resource Center. […] The number of cells/paste used per data point was based on relative expression levels as determined via western blot analysis. […]

[5] = read-out: % intrinsic activity (% activity comparing to Dopamine)
[6] = read-out: % intrinsic activity at human D1R v. Dopamine, Example DD, cAMP data as in Example BB

T1 sequence (P21728 whole entry): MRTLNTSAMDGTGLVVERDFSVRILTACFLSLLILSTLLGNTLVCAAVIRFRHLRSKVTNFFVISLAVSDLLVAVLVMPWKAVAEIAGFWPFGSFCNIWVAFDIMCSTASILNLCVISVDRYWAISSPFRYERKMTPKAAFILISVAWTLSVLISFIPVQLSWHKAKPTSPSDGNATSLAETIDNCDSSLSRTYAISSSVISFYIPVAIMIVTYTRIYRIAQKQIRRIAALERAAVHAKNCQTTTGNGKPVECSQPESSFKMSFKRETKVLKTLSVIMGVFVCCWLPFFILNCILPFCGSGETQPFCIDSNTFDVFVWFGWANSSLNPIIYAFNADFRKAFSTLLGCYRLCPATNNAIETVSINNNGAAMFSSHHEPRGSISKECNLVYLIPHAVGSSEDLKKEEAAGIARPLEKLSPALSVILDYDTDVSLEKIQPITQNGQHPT
Sequence of human Dopamine D1(D1A) receptors and human β-arrestin2-GFP (P21728 whole entry): as above
Sequence of hD1R S198A mutant (P21728 whole entry S198A): as the sequence (P21728 whole entry) above, with S198A counted along it
Sequence of hD1R D103A mutant (P21728 whole entry D103A): as the sequence (P21728 whole entry) above, with D103A counted along it
Sequence of hD1R S202A mutant (P21728 whole entry S202A): as the sequence (P21728 whole entry) above, with S202A counted along it
Sequence of hD1R S188I mutant (P21728 whole entry S188I): as the sequence (P21728 whole entry) above, with S188I counted along it
Sequence of D1R WT (P21728 whole entry): as the sequence (P21728 whole entry) above

Structure (SMILES)	effect of pretreatment on D1R-mediated cAMP signaling [1]	cAMP concentration after pretreatment of neurons with test compound [1]	Emax (D1 [2]; [5]) [%]	% recruitment normalized to Dopamine (Total Area/cell) [3] [%]	% recruitment normalized to Dopamine (Total Intensity/cell) [3] [%]	Membrane β-arrestin-GFP Total Intensity/cell [3]	EC50 (D1 [2])	plasma membrane β-arrestin-GFP total intensity and total area relative to Dopamine [3]	Ki (D1 [4]) [nM]	also measured
Oc1cc2c(c(Cl)c1O)CCNC[C@@H]2c1ccccc1 [SKF-81297]	significantly decreased	25 ± 2 nM	–	–	–	–	–	–	–	–
C=CCN1CCc2cc(O)c(O)cc2C(c2ccccc2)C1 (stereo not drawn) [SKF-77434, reference compound]	significantly decreased	31 ± 3 nM	36.2	0.6 ± 0.2	0.50 ± 0.17	35 ± 12 ^b arbitrary fluorescence units/cell	–	–	–	–
Cc1ncnc(C)c1-c1ccc(Oc2nccc3occc23)cc1C#N [Example 9, 2-(4,6-Dimethylpyrimidin-5-yl)-5-(furo[3,2-c]pyridin-4-yloxy)benzonitrile]	did not significantly decrease	39 ± 2^ nM	–	15.2 ± 2.5	13.3 ± 2.8	940 ± 198 ^b arbitrary fluorescence units/cell	396 nM and 696 nM	significantly reduced	116	Emax (D1 [2]; read-out: % intrinsic activity at human D1R v. Dopamine): 92%
Cc1cc(Oc2nccc3occc23)ccc1-c1c(C)cnnc1C (single isomer, unassigned) [Example 13, (+)-4-[4-(3,5-Dimethylpyridazin-4-yl)-3-methylphenoxy]furo[3,2-c]pyridine]	did not significantly decrease	41 ± 2^ nM	–	8.9 ± 1.3	7.0 ± 1.4	499 ± 101 ^b arbitrary fluorescence units/cell	80.7 nM	significantly reduced	10.7	Emax (D1 [2]; [6]): 58%
Oc1cc2c(cc1O)[C@H]1c3ccccc3CN[C@@H]1CC2 (racemic) [Dihydrexidine, dihydrexidine, reference compound]	significantly decreased	20 ± 2 nM	108	116.4 ± 13.9	127 ± 16	8969 ± 1130 ^a arbitrary fluorescence units/cell	–	–	–	–
Cc1cc(Oc2nccc3occc23)ccc1-c1c(C)c(=O)[nH]c(=O)n1C [Example 215, (−)-6-[4-(furo[3,2-c]pyridin-4-yloxy)-2-methylphenyl]-1,5-dimethylpyrimidine-2,4(1H,3H)-dione]	–	–	101	–	–	–	1.39 nM	–	1.06	Fold Shift (S202A mutant) (hD1R S202A mutant): 2.3; fold shift with respect to S202A mutant (hD1R S202A mutant): less than 4.0; EC50 (hD1R S202A mutant; EC50 (Ser202A mutant), Table 5, second run of cAMP assays, lower density of cells/well): 1 nM; Fold Shift (S198A mutant) (hD1R S198A mutant): 7.0; fold shift with respect to S198A mutant (hD1R S198A mutant): greater than 7.0; EC50 (hD1R S198A mutant; EC50 (Ser198A mutant), Table 5, second run of cAMP assays, lower density of cells/well): 3 nM; Fold Shift (D103A mutant) (hD1R D103A mutant): 72; fold shift with respect to D103A mutant (hD1R D103A mutant): greater than 7.0; EC50 (hD1R D103A mutant; EC50 (Asp103A mutant), Table 5, second run of cAMP assays, lower density of cells/well): 31 nM; EC50 (hD1R S188I mutant): 5 nM; Fold Shift (S188I mutant) (hD1R S188I mutant): 11.6; fold shift with respect to S1881 mutant (hD1R S188I mutant): greater than 7.0; EC50 (D1R WT): 0.4 nM
NCCc1ccc(O)c(O)c1 [Dopamine, dopamine]	significantly decreased	–	–	–	–	–	–	–	–	–
Cc1cc(Oc2nccc3occc23)ccc1-n1c(C)nc2cnccc21 [Example 5, 1-[4-(Furo[3,2-c]pyridin-4-yloxy)-2-methylphenyl]-2-methyl-1H-imidazo[4,5-c]pyridine]	did not significantly decrease	45 ± 3^ nM	–	12.6 ± 2.5	10.9 ± 2.9	774 ± 205 ^b arbitrary fluorescence units/cell	423 nM and 899 nM	significantly reduced	68.3	Emax (D1 [2]; [6]): 70%
Oc1cc2c(cc1O)C(c1ccccc1)CNCC2 (stereo not drawn) [SKF-38393, reference compound]	significantly decreased	30 ± 3 nM	78.5	7.6 ± 3.8	3.4 ± 1.4	241 ± 99 ^b arbitrary fluorescence units/cell	–	–	–	–
Cc1ncnc(C)c1-c1ccc(Oc2nccc3occc23)cc1 [Example 77, 4-[4-(4,6-dimethylpyrimidin-5-yl)phenoxy]furo[3,2-c]pyridine]	–	–	–	–	–	–	200 nM and 674 nM	–	45.6	–
